Reference: patent US20250051301A1, “MUTANT IDH1 AND IDH2 INHIBITOR AND APPLICATION THEREOF” (Betta Pharmaceuticals Co., Ltd, priority 2022, published 2025)
Values after ≈ are worked out from the molar mass of the structure shown.

Experiments:
[1] = biological target: T1, IDH2^R140Q (Homo sapiens, UniProt P48735, R140Q); assay: Enzyme activity inhibition assay (fluorescence-based), IDH2 R140Q; format: biochemical; conditions: numeric values
T1 sequence (P48735 40-452 R140Q): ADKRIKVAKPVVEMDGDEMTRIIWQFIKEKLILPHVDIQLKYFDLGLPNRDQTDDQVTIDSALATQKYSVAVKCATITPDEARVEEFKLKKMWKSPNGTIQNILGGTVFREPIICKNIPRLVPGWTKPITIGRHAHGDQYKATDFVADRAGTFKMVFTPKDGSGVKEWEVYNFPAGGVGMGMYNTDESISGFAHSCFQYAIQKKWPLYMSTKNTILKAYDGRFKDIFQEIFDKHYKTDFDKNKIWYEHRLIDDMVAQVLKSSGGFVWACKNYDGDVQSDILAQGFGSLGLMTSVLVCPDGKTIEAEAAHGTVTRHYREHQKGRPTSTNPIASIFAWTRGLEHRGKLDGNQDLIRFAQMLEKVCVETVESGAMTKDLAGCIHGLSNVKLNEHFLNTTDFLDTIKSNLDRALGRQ
Experimental: (§1) The inhibitory ability of the compounds on the enzyme activities of IDH1^R132H and IDH2^R140Qwas detected and expressed as the half inhibitory concentration (IC50) value. AG-881 was used as a positive control compound. In this experiment, compounds were screened on enzymes IDH1^R132H and IDH2^R140Q using a fluorescence-based method (initial concentration: 10000 nM, 3-fold dilution, 10 concentrations, and single-well detection). • (1) Preparation of 1×assay buffer. • (2) Preparation of compound concentration gradient: the compounds to be tested were assayed at an initial concentration of 10000 nM, with 3-fold dilution and 10 concentrations, and diluted into 200-fold the final concentration in 100% DMSO solution in a 384-well plate. • (3) 250 nL of DMSO and 250 nL of diluted compounds were transferred to a reaction plate with Echo 550. • (4) IDH2^R140Q enzyme detection: 25 μL of an IDH2^R140Q enzyme solution was added, and the mixture was incubated for 60 minutes; then 25 μL of a substrate solution was added, and the mixture was incubated for 150 minutes; then 25 μL of a detection buffer was added, and the mixture was shaken for 1 minute and incubated for 60 minutes; and finally, Synergy 2, Ex544/Em590 cutoff 590 was used for reading. • (5) IDH1^R132H enzyme detection: 40 μL of a mixture solution of an IDH1^R132H enzyme at the 1.25-fold final concentration and NADPH was added, and the mixture was incubated for 60 minutes; then 10 μL of a substrate solution at the 5-fold final concentration was added, and the mixture was incubated for 90 minutes; then 25 μL of a detection buffer at the 3-fold final concentration was added, and the mixture was shaken for 1 minute. and finally, Synergy 2, Ex544/Em590 cutoff 590 was used for reading. • (8) Inhibition rate calculation, formula: % Inhibition=(RFU_sample−RFU_min)/(RFU_max−RFU_min)*100%, wherein RFU-sample represents the fluorescence intensity of a sample; RFU-min represents the average value of negative control wells and represents the fluorescence intensity with an enzyme; and RFU-max represents the average value of positive control wells and represents the fluorescence intensity without an enzyme. The curve fitting was performed using Graphpad Prism software to obtain IC50 values, and the test results were as shown in table 2.

[2] = biological target: IDH1^R132H (Homo sapiens, UniProt O75874, R132H); assay: Enzyme activity inhibition assay (fluorescence-based), IDH1 R132H; format: biochemical; conditions: numeric values
Sequence of IDH1^R132H (O75874 whole entry R132H): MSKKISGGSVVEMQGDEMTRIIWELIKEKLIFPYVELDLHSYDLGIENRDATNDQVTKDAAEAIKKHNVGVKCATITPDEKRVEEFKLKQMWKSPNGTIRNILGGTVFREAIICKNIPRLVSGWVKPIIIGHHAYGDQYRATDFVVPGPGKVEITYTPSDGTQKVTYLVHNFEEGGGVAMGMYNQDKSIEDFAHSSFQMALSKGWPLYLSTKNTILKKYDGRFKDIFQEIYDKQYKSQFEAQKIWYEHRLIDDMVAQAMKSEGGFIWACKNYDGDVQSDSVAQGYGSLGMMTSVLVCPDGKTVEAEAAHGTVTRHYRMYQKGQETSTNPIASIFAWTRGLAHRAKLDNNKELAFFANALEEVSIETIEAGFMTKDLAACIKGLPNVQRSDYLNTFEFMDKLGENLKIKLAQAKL
Experimental: as §1

[3] = Kinetic solubility experiment; format: physicochemical; conditions: buffer, kinetic from dmso stock
Experimental: 1. Preparation of Solutions/Buffers at Different pH Values
• Solution A: 17.42 g of K2HPO4 was weighed and dissolved in 1 L of ultrapure water. • Solution B: 13.65 g of KH2PO4 was weighed and dissolved in 1 L of ultrapure water.
A certain mass of substance to be tested was accurately weighed and dissolved in a certain volume of DMSO to obtain a 20 mM or 10 mM stock solution.
An acetonitrile stopping solution containing 1 ng/mL of labetalol and glibenclamide was prepared.
3. Incubation System (n=3)
The above-mentioned solutions were placed in a 96-well plate, respectively and shaken in a thermostatic oscillator for 2 hours (37° C., 150 rpm).
4. Control solution: 200 μM control solution of the substance to be tested was prepared in methanol. 5. Sample treatment
At a predetermined time, the 96-well plate was placed in a centrifuge and centrifuged at 4100 rpm for 15 minutes. A certain volume of the supernatant and a certain volume of control solution were respectively taken into 19 times volume of water containing 70% acetonitrile that has been previously added. The mixture was uniformly mixed, diluted 20 times with an internal standard stop solution and shaken in a thermostatic oscillator at 700 rpm at room temperature for 5 min. Further dilution may be necessary depending on the sensitivity of the compound, and sample analysis was performed by LC-MS/MS.
The ratio of compound peak area to internal standard peak area was used for calculation. According to the concentration relationship between the compound in the buffer and the control solution, the calculated concentration was the kinetic solubility, and the calculation formula was as follows:
Solubility(μg/mL)=mass spectral peak area of the compound to be tested in buffers at different pHs×200μM×molecular weight of the compound to be tested(MW)/mass spectral peak area of the compound to be tested in methanol/1000;

## C[C@@H](Nc1nc(N[C@H](C)C(F)(F)F)nc(-c2cc(F)c(N)c(Cl)n2)n1)C(F)(F)F [Example 5, 6-(5-amino-6-chloro-4-fluoropyridin-2-yl)-N^2,N^4-bis((R)-1,1,1-trifluoropropyl-2-yl)-1,3,5-triazine-2,4-diamine]
[1]
  IC50: 190 nM
[2]
  IC50: 8 nM
[3]; aqueous buffer, pH = 3.0, 37° C.
  solubility at 2 h: 53.3 µg/mL (≈ 119 µM)
[3]; aqueous buffer, pH = 5.0, 37° C.
  solubility at 2 h: 59.5 µg/mL (≈ 133 µM)
[3]; aqueous buffer, pH = 7.4, 37° C.
  solubility at 2 h: 48.1 µg/mL (≈ 107 µM)
[3]; simulated gastric fluid, pH = 1.0, 37° C.
  solubility at 2 h: 86.6 µg/mL (≈ 193 µM)
